Test results published in patent US20100286145A1, “ISOPHTHALAMIDE DERIVATIVES INHIBITING BETA-SECRETASE ACTIVITY” (CoMentis, Inc., priority 2007, published 2010).
Like-named read-outs stand apart in the source and are kept apart here.

Biological target: memapsin 2 (Homo sapiens, UniProt P56817)
Assay: Inhibition of memapsin 2 beta-secretase activity (fluorogenic substrate FS-2)
Assay type: biochemical
Details: memapsin 2, pH 4, 37° C., read-out: M2Ki
Outline: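 Kinetic fluorogenic assay: hydrolysis of the MCA/DNP-labelled APP Swedish-variant peptide FS-2 monitored as fluorescence rise at 37° C, pH 4, after 20 min enzyme–compound preincubation. Relative rates fitted with a tight-binding inhibitor model.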

memapsin 2, sequence (P56817 46-501): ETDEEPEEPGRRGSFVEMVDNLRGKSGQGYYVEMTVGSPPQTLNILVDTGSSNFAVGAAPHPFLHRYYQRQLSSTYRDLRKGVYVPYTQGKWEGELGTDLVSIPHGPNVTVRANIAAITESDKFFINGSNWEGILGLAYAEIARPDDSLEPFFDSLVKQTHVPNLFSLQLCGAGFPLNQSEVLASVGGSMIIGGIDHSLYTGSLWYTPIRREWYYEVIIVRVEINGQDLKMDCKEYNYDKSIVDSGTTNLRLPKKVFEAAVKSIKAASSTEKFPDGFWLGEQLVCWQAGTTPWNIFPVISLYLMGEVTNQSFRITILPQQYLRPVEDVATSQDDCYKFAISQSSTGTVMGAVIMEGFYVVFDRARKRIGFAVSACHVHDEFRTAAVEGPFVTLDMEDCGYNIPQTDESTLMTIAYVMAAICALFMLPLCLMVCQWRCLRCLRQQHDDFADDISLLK

Row | Ki (fluorogenic substrate FS-2) [µM] | Ki (20 minutes pre-incubation) [µM] | Compound
1 | < 0.3 | – | Cc1csc(CN(C)C(=O)c2cccc(C(=O)N[C@@H](Cc3ccccc3)[C@H](O)CNCc3cc(C(F)(F)F)ccn3)c2)n1 [Compound 302, N1-((2S,3R)-3-hydroxy-1-phenyl-4-((4-(trifluoromethyl)pyridin-2-yl)methylamino)butan-2-yl)-N3-methyl-N3-((4-methylthiazol-2-yl)methyl)isophthalamide]
2 | < 0.3 | – | Cc1csc(CN(C)C(=O)c2cccc(C(=O)N[C@@H](Cc3ccccc3)[C@H](O)CNCc3cncc(C(C)CO)c3)c2)n1 (stereo partly drawn) [Compound 314, N1-((2S,3R)-3-hydroxy-4-((5-(1-hydroxypropan-2-yl)pyridin-3-yl)methylamino)-1-phenylbutan-2-yl)-N3-methyl-N3-((4-methylthiazol-2-yl)methyl)isophthalamide]
3 | > 0.501 | – | Cc1csc(CN(C)C(=O)c2cccc(C(=O)N[C@@H](Cc3ccccc3)[C@H](O)CNS(=O)(=O)c3cccc(C(F)(F)F)c3)c2)n1 [Compound 310, N1-((2S,3R)-3-hydroxy-1-phenyl-4-(3-(trifluoromethyl)phenylsulfonamido)butan-2-yl)-N3-methyl-N3-((4-methylthiazol-2-yl)methyl)isophthalamide]
4 | > 0.501 | – | Cc1csc(CNC[C@@H](O)[C@H](Cc2ccccc2)NC(=O)c2cccc(C(=O)N(C)Cc3nc(C)cs3)c2)n1 [Compound 294, N1-((2S,3R)-3-hydroxy-4-((4-methylthiazol-2-yl)methylamino)-1-phenylbutan-2-yl)-N3-methyl-N3-((4-methylthiazol-2-yl)methyl)isophthalamide]
5 | < 0.3 | – | CCn1cc(CNC[C@@H](O)[C@H](Cc2ccccc2)NC(=O)c2cccc(C(=O)N(C)Cc3nc(C)cs3)c2)cn1 [Compound 320, N1-((2S,3R)-4-((1-ethyl-1H-pyrazol-4-yl)methylamino)-3-hydroxy-1-phenylbutan-2-yl)-N3-methyl-N3-((4-methylthiazol-2-yl)methyl)isophthalamide]
6 | < 0.3 | – | Cc1csc(CN(C)C(=O)c2cccc(C(=O)N[C@@H](Cc3ccccc3)[C@H](O)CNCc3cncc(C(C)CO)c3)c2)n1 (stereo partly drawn) [Compound 313, N1-((2S,3R)-3-hydroxy-4-((5-(1-hydroxypropan-2-yl)pyridin-3-yl)methylamino)-1-phenylbutan-2-yl)-N3-methyl-N3-((4-methylthiazol-2-yl)methyl)isophthalamide]
7 | < 0.3 | – | C=C(C)c1cncc(CNC[C@@H](O)[C@H](Cc2ccccc2)NC(=O)c2cccc(C(=O)N(C)Cc3nc(CO)cs3)c2)c1 [Compound 319, N1-((2S,3R)-3-hydroxy-1-phenyl-4-((5-(prop-1-en-2-yl)pyridin-3-yl)methylamino)butan-2-yl)-N3-((4-(hydroxymethyl)thiazol-2-yl)methyl)-N3-methylisophthalamide]
8 | < 0.3 | – | Cc1csc(CN(C)C(=O)c2cccc(C(=O)N[C@@H](Cc3ccccc3)[C@H](O)CNCc3cc(OC(=O)CN(C)C)cc(C(C)C)c3)c2)n1 [Compound 311, 3-(((2R,3S)-2-hydroxy-3-(3-(methyl((4-methylthiazol-2-yl)methyl)carbamoyl)benzamido)-4-phenylbutylamino)methyl)-5-isopropylphenyl 2-(dimethylamino)acetate]

More lines, now with the values behind:

Row | Compound | Ki (fluorogenic substrate FS-2) [µM] | Ki (20 minutes pre-incubation) [µM]
9 | COc1cccc(CNC[C@@H](O)[C@H](Cc2ccccc2)NC(=O)c2cc(C(=O)N(C)Cc3nc(C)cs3)cc(-c3ccncc3)c2)c1 [Compound 203, N1-((2S,3R)-3-hydroxy-4-(3-methoxybenzylamino)-1-phenylbutan-2-yl)-N3-methyl-N3-((4-methylthiazol-2-yl)methyl)-5-(pyridin-4-yl)isophthalamide] | – | < 0.3
10 | CNc1cc(CNC[C@@H](O)[C@H](Cc2ccccc2)NC(=O)c2cccc(C(=O)N(C)Cc3nc(C)cs3)c2)cc(C(F)(F)F)c1 [Compound 283, N1-((2S,3R)-3-hydroxy-4-(3-(methylamino)-5-(trifluoromethyl)benzylamino)-1-phenylbutan-2-yl)-N3-methyl-N3-((4-methylthiazol-2-yl)methyl)isophthalamide] | < 0.3 | –
11 | COc1cccc(CNC[C@@H](O)[C@H](Cc2ccccc2)NC(=O)c2cccc(C(=O)N(C)c3nc(C)cs3)c2)c1 [Compound 84, N1-((2S,3R)-3-hydroxy-4-(3-methoxybenzylamino)-1-phenylbutan-2-yl)-N3-methyl-N3-(4-methylthiazol-2-yl)isophthalamide] | – | > 0.501
12 | COc1cccc(CNC[C@@H](O)[C@H](Cc2ccccc2)NC(=O)c2cc(C(=O)NCc3cccc(C)n3)cc(N(C)S(C)(=O)=O)c2)c1 [Compound 127, N1-((2S,3R)-3-hydroxy-4-(3-methoxybenzylamino)-1-phenylbutan-2-yl)-5-(N-methylmethylsulfonamido)-N3-((6-methylpyridin-2-yl)methyl)isophthalamide] | – | > 0.501
13 | CSCc1ccc(CNC[C@@H](O)[C@H](Cc2ccccc2)NC(=O)c2cccc(C(=O)N(C)Cc3nc(C)cs3)c2)nc1C [Compound 87, N1-((2S,3R)-3-hydroxy-4-((6-methyl-5-(methylthiomethyl)pyridin-2-yl)methylamino)-1-phenylbutan-2-yl)-N3-methyl-N3-((4-methylthiazol-2-yl)methyl)isophthalamide] | – | > 0.501
14 | COc1cccc([C@@H](C)NC[C@@H](O)[C@H](Cc2ccccc2)NC(=O)c2cc(C(=O)N(C)Cc3nc(C)cs3)cc(-c3ncco3)c2)c1 [Compound 290, N1-((2S,3R)-3-hydroxy-4-((R)-1-(3-methoxyphenyl)ethylamino)-1-phenylbutan-2-yl)-N3-methyl-N3-((4-methylthiazol-2-yl)methyl)-5-(oxazol-2-yl)isophthalamide] | < 0.3 | –
15 | COc1cccc(CNC[C@@H](O)[C@H](Cc2ccccc2)NC(=O)c2cccc(C(=O)N(C)Cc3nc(C)c(C)s3)c2)c1 [Compound 24, N1-((4,5-dimethylthiazol-2-yl)methyl)-N3-((2S,3R)-3-hydroxy-4-(3-methoxybenzylamino)-1-phenylbutan-2-yl)-N1-methylisophthalamide] | – | > 0.501
16 | Cc1csc(CN(C)C(=O)c2cccc(C(=O)N[C@@H](Cc3ccccc3)[C@H](O)CN(Cc3cnn(C)c3)Cc3cnn(C)c3)c2)n1 [Compound 156, N1-((2S,3R)-4-(bis((1-methyl-1H-pyrazol-4-yl)methyl)amino)-3-hydroxy-1-phenylbutan-2-yl)-N3-methyl-N3-((4-methylthiazol-2-yl)methyl)isophthalamide] | – | > 0.501
17 | COc1cccc(CNC[C@@H](O)[C@H](Cc2ccccc2)NC(=O)c2cccc(C(=O)N(C)Cc3cccnc3)c2)c1 [Compound 55, N1-((2S,3R)-3-hydroxy-4-(3-methoxybenzylamino)-1-phenylbutan-2-yl)-N3-methyl-N3-(pyridin-3-ylmethyl)isophthalamide] | – | > 0.501
18 | N3-((2S,3R)-3-hydroxy-4-(3-methoxybenzylamino)-1-phenylbutan-2-yl)-N1,4-dimethyl-N1-((4-methylthiazol-2-yl)methyl)isophthalamide and N1-((2S,3R)-3-hydroxy-4-(3-methoxybenzylamino)-1-phenylbutan-2-yl)-N3,4-dimethyl-N3-((4-methylthiazol-2-yl)methyl)isophthalamide (regioisomeric mixture) [Compound 42] | – | > 0.501
19 | CCCN(Cc1nc(C)cs1)C(=O)c1cc(OC)cc(C(=O)N[C@@H](Cc2ccccc2)[C@H](O)CNCc2cccc(OC)c2)c1 [Compound 20, N1-((2S,3R)-3-hydroxy-4-(3-methoxybenzylamino)-1-phenylbutan-2-yl)-5-methoxy-N3-((4-methylthiazol-2-yl)methyl)-N3-propylisophthalamide] | – | < 0.3
20 | COc1ccnc(CNC[C@@H](O)[C@H](Cc2ccccc2)NC(=O)c2cccc(C(=O)N(C)Cc3nc(C)cs3)c2)n1 [Compound 48, N1-((2S,3R)-3-hydroxy-4-((4-methoxypyrimidin-2-yl)methylamino)-1-phenylbutan-2-yl)-N3-methyl-N3-((4-methylthiazol-2-yl)methyl)isophthalamide] | – | > 0.501
21 | COCCn1ncc(CNC[C@@H](O)[C@H](Cc2ccccc2)NC(=O)c2cc(C(=O)N[C@H](C)c3ccccc3)cc(N(C)S(C)(=O)=O)c2)c1C [Compound 131, N1-((2S,3R)-3-hydroxy-4-((1-(2-methoxyethyl)-5-methyl-1H-pyrazol-4-yl)methylamino)-1-phenylbutan-2-yl)-5-(N-methylmethylsulfonamido)-N3-((R)-1-phenylethyl)isophthalamide] | – | < 0.3
22 | Cc1csc(CN(C)C(=O)c2cccc(C(=O)N[C@H](Cc3ccccc3)[C@H](O)CNCc3cncc(C(C)C)c3)c2)n1 [Compound 151, N1-((2R,3R)-3-hydroxy-4-((5-isopropylpyridin-3-yl)methylamino)-1-phenylbutan-2-yl)-N3-methyl-N3-((4-methylthiazol-2-yl)methyl)isophthalamide] | – | > 0.501
23 | Cc1csc(CN(C)C(=O)c2cccc(C(=O)N[C@@H](Cc3ccccc3)[C@H](O)CNCc3ccc(C)c(C)c3)c2)n1 [Compound 13, N1-((2S,3R)-4-(3,4-dimethylbenzylamino)-3-hydroxy-1-phenylbutan-2-yl)-N3-methyl-N3-((4-methylthiazol-2-yl)methyl)isophthalamide] | – | < 0.3
24 | C[C@@H](NC(=O)c1cc(C(=O)N[C@@H](Cc2ccccc2)[C@H](O)CNCc2cnn(C(C)(C)C)c2)cc(N(C)S(C)(=O)=O)c1)c1ccccc1 [Compound 138, N1-((2S,3R)-4-((1-tert-butyl-1H-pyrazol-4-yl)methylamino)-3-hydroxy-1-phenylbutan-2-yl)-5-(N-methylmethylsulfonamido)-N3-((R)-1-phenylethyl)isophthalamide] | – | > 0.501
25 | Cc1csc(CN(C)C(=O)c2cccc(C(=O)N[C@@H](Cc3ccccc3)[C@H](O)CNCc3cnn(C)c3)c2)n1 [Compound 287, N1-((2S,3R)-3-hydroxy-4-((1-methyl-1H-pyrazol-4-yl)methylamino)-1-phenylbutan-2-yl)-N3-methyl-N3-((4-methylthiazol-2-yl)methyl)isophthalamide] | < 0.3 | –
